The record followed here is patent publication US20170299579A1, “VITELLINE MEMBRANE AS A MODEL OF THE BLOOD BRAIN BARRIER” (priority 2016, published 2017).

For data set [1] the following is noted: not told.
For data set [2] the following is noted: not told. The source holds these as a separate data set.
A short description of data set [3]: Spectrophotometric absorbance of albumen of decalcified quail eggs after incubation with agent. The data set is classed as in vitro ADME. On the procedure: (§1) An Ultrospect III spectrophotometer (Pharmacia, Cambridge, England) was recently calibrated by Spectrofuge Corporation of North Carolina, Inc. (Durham, N.C.). Blank quartz cuvettes were selected with the smallest deviation in absorbance. Standard solutions of 2.6×10^−3M acetaminophen and 4.4×10^−3 2-cholorprocaine were prepared. Approximate peak ultraviolet wavelengths were determined with the standard solutions in methanol and PBS. Fine adjustment of the optimum wavelength was performed by retrofit of Beer's law plots of the standards and dilutions. Optimum absorbance wavelengths for acetaminophen and 2-chloroprocaine were 300 nm 329 nm, respectively. Optimum absorbance wavelengths for acetaminophen and 2-choroprocaine dissolve in PBS were 319 nm and 340, respectively. (Table 3)
(§2) The decalcified eggs were soaked in solutions for 2 or 12 hours and then placed in a home freezer prior to analysis. The quail eggs were opened with a razor knife and the denatured albumen and yolk were separated. In most samples the vitelline membrane could be easily separated from the yolk. Samples of the denatured albumen and yolk were dissolved in 5 ml of methanol or PBS and centrifuged at 2700 rpm for 5 minutes. The supernatants were then clarified through a 0.2 micrometer filter (MILLEX-FG, Merck Millipore, Ltd). Clarification of the PBS samples was more difficult than the methanol samples. The clear filtrate was placed in quartz cuvettes. Any air bubbles were eliminated and the samples were analyzed in the spectrophotometer. (Tables 4&5)

Data set [4] can be described thus: Spectrophotometric absorbance of yolk of decalcified quail eggs after incubation with agent. The data set is classed as in vitro ADME. On the procedure:
as §1, §2

Data set [5] can be described thus: Permeability of vitelline membrane of decalcified quail eggs (agent reaching the yolk), model of the human blood brain barrier.
Setting [6] is: in PBS, 4.4 × 10^−2 m/l, 340 nm, 12 hours.
Setting [7] is: in methanol, 4.4 × 10^−2 m/L, 329 nm, 2 hours.
[8] abbreviates: in methanol, 4.4 × 10^−2 m/L, 329 nm, 12 hours.

Like-named read-outs stand apart in the source and are kept apart here.

In the case of `CCN(Cc1cccc(S(=O)(=O)[O-])c1)c1ccc(C(=C2C=CC(=[N+](CC)Cc3cccc(S(=O)(=O)[O-])c3)C=C2)c2ccccc2S(=O)(=O)[O-])cc1.[Na+].[Na+]` [FD&C Blue #1], the “Permeability (outer and inner membrane)” value in data set [1] was “+”. For the same compound, the “Permeability (vitelline membrane)” value in data set [2] was “−”.

Turning to `CCOCC` [Ether, diethyl ether], in data set [1], the “Permeability (outer and inner membrane)” value is reported as “+”.

In the case of `CC(=O)Nc1ccc(O)cc1` [Acetaminophen], the “Albumen (abs)” value in data set [3] (quail, 2 h) is recorded as 2.85 abs. Besides, the “Permeability (outer and inner membrane)” value in data set [1] is reported as “+”. The “Yolk (abs)” value in data set [4] (quail, 2 h) worked out at 2.40 abs. For the same compound, in data set [2], the “Crossing of the vitelline membrane” value is “crossed the vitelline membrane” and the “Permeability (vitelline membrane)” value is on record as “+”.

In the case of `[K+].[K+].[O]=[Cr](=[O])([O-])[O][Cr](=[O])(=[O])[O-]` [Potassium dichromate], the “Permeability (vitelline membrane)” value in data set [5] (0.01M, incubation time 2 hours) is recorded as “−”.

As to `CN(C)c1ccc(C(=C2C=CC(=[N+](C)C)C=C2)c2ccccc2)cc1` [Malachite green], the “Permeability (vitelline membrane)” value in data set [5] (0.01M, incubation time 2 hours) is “−”.

On to `C=C[C@H]1C[N@@]2CC[C@H]1C[C@H]2[C@H](O)c1ccnc2ccc(OC)cc12` [Quinine], for which the “Permeability (outer and inner membrane)” value in data set [1] is on record as “+”. In addition, in data set [2], the “Permeability (vitelline membrane)” value is listed as “−”.

Take `CN(C)c1ccc(/N=N/c2ccccc2C(=O)O)cc1` [Methyl red]: the “Permeability (outer and inner membrane)” value in data set [1] is on record as “+”. Also, the “Permeability (vitelline membrane)” value in data set [2] is given as “−”.

`CCO` [Ethanol]: in data set [1], the “Permeability (outer and inner membrane)” value is on record as “+”. In addition, in data set [2], the “Crossing of the vitelline membrane” value is “crossed the vitelline membrane” and the “Permeability (vitelline membrane)” value is given as “+”.

With `Cc1cc(C2(c3ccc(O)c(C)c3)OS(=O)(=O)c3ccccc32)ccc1O` [Creosol red], the “Permeability (outer and inner membrane)” value in data set [1] is on record as “+”. The “Permeability (vitelline membrane)” value in data set [2] is recorded as “−”.

For the compound `CCN(CC)CCOC(=O)c1ccc(N)cc1Cl` [2-Chloroprocaine], the “Albumen (abs)” value in data set [3] (setting [6]) was determined as 0.48 abs; in data set [3] (setting [7]), 1.86 abs; in data set [3] (setting [8]), 2.52 abs. Moreover, the “Yolk (abs)” value in data set [4] (setting [6]) is on record as 1.04 abs; in data set [4] (setting [7]), 1.37 abs; in data set [4] (setting [8]), 1.71 abs. Further, the “Permeability (vitelline membrane)” value in data set [5] (agent in PBS, 2-Chloroprocaine 4 × 10^−2 M, Acetaminophen 2.6 × 10^−1 M, incubation time 12 hours) was “+”; in data set [5] (agent in methanol, 2-Chloroprocaine 4 × 10−2 M, Acetaminophen 2.6 × 10^−1 M, incubation time 2 & 12 hours), “+”. For the same compound, the “Crossing of the vitelline membrane” value in data set [5] (spectroscopic analysis) is “crossed the vitelline membrane”.

With `O=C1OC2(c3ccc(O)cc3Oc3cc(O)ccc32)c2ccccc21` [Fluorescein], in data set [1], the “Permeability (outer and inner membrane)” value is “+”. In addition, the “Permeability (vitelline membrane)” value in data set [2] was “−”.
